Experiment: Bioavailability in dogs of two injectable formulations (GF s/c, OS i/m) of Compound A and Sulphadimethoxine (serum levels)
Format: in vivo
Conditions: 30mg total a.i./kg
Method: GF = Solution in glycofurol of Compound A 2% w/v and sulphadimethoxine (SDM), 10% w/v; OS = Suspension in Miglyol 812 of Compound A, 2% w/v and SDM, 10% w/v
Six adult beagles (three male, three female, including Dogs 1 to 4 of Example 1) and six adult male cats, housed in Coopers' kennels were in all cases given a single injection at 30mg. total a.i./kg. bodyweight, i.e. 1ml./4kg. The glycofurol solution (GF) was injected s/c in the dorsal neck region and the oily suspension (OS) was injected i/m in the quadriceps (anterior thigh) muscles.
Blood samples (jugular venous samples or on some occasions from the cats, cephalic vein samples) were collected before and after injection at the times indicated in Tables 5 to 8).
A standard well-plate bio-assay method was used for Compound A, SDM being estimated by the Bratton-Marshall method. (The bio-assay method cannot distinguish between parent compound and any active metabolites present, but the results are expressed as mg/L Compound A).

COc1cc(NS(=O)(=O)c2ccc(N)cc2)nc(OC)n1 [SDM, sulphadimethoxine]
Serum concentrations of SDM (dog No.1, GF s/c, 0 hours p.i.): 0 ng/mL
Serum concentrations of SDM (dog No.1, GF s/c, 1 hours p.i.): 82000 ng/mL
Serum concentrations of SDM (dog No.1, GF s/c, 4 hours p.i.): 95000 ng/mL
Serum concentrations of SDM (dog No.1, GF s/c, 7 hours p.i.): 99000 ng/mL
Serum concentrations of SDM (dog No.1, GF s/c, 24 hours p.i.): 47000 ng/mL
Serum concentrations of SDM (dog No.1, GF s/c, 28 hours p.i.): 34000 ng/mL
Serum concentrations of SDM (dog No.1, GF s/c, 31 hours p.i.): 30000 ng/mL
Serum concentrations of SDM (dog No.1, GF s/c, 48 hours p.i.): 24000 ng/mL
Serum concentrations of SDM (dog No.1, GF s/c, 55 hours p.i.): 17000 ng/mL
Serum concentrations of SDM (dog No.1, GF s/c, 72 hours p.i.): 14000 ng/mL
Serum concentrations of SDM (dog No.2, OS i/m, 0 hours p.i.): 0 ng/mL
Serum concentrations of SDM (dog No.2, OS i/m, 1 hours p.i.): 5000 ng/mL
Serum concentrations of SDM (dog No.2, OS i/m, 4 hours p.i.): 23000 ng/mL
Serum concentrations of SDM (dog No.2, OS i/m, 7 hours p.i.): 35000 ng/mL
Serum concentrations of SDM (dog No.2, OS i/m, 24 hours p.i.): 34000 ng/mL
Serum concentrations of SDM (dog No.2, OS i/m, 28 hours p.i.): 31000 ng/mL
Serum concentrations of SDM (dog No.2, OS i/m, 31 hours p.i.): 29000 ng/mL
Serum concentrations of SDM (dog No.2, OS i/m, 48 hours p.i.): 35000 ng/mL
Serum concentrations of SDM (dog No.2, OS i/m, 55 hours p.i.): 27000 ng/mL
Serum concentrations of SDM (dog No.2, OS i/m, 72 hours p.i.): 6000 ng/mL
Serum concentrations of SDM (dog No.3, GF s/c, 0 hours p.i.): 0 ng/mL
Serum concentrations of SDM (dog No.3, GF s/c, 1 hours p.i.): 21000 ng/mL
Serum concentrations of SDM (dog No.3, GF s/c, 4 hours p.i.): 90000 ng/mL
Serum concentrations of SDM (dog No.3, GF s/c, 7 hours p.i.): 99000 ng/mL
Serum concentrations of SDM (dog No.3, GF s/c, 24 hours p.i.): 51000 ng/mL
Serum concentrations of SDM (dog No.3, GF s/c, 28 hours p.i.): 40000 ng/mL
Serum concentrations of SDM (dog No.3, GF s/c, 31 hours p.i.): 30000 ng/mL
Serum concentrations of SDM (dog No.3, GF s/c, 48 hours p.i.): 19000 ng/mL
Serum concentrations of SDM (dog No.3, GF s/c, 55 hours p.i.): 12000 ng/mL
Serum concentrations of SDM (dog No.3, GF s/c, 72 hours p.i.): 21000 ng/mL
Serum concentrations of SDM (dog No.4, OS i/m, 0 hours p.i.): 0 ng/mL
Serum concentrations of SDM (dog No.4, OS i/m, 1 hours p.i.): 7000 ng/mL
Serum concentrations of SDM (dog No.4, OS i/m, 4 hours p.i.): 26000 ng/mL
Serum concentrations of SDM (dog No.4, OS i/m, 7 hours p.i.): 36000 ng/mL
Serum concentrations of SDM (dog No.4, OS i/m, 24 hours p.i.): 38000 ng/mL
Serum concentrations of SDM (dog No.4, OS i/m, 28 hours p.i.): 37000 ng/mL
Serum concentrations of SDM (dog No.4, OS i/m, 31 hours p.i.): 35000 ng/mL
Serum concentrations of SDM (dog No.4, OS i/m, 48 hours p.i.): 26000 ng/mL
Serum concentrations of SDM (dog No.4, OS i/m, 55 hours p.i.): 19000 ng/mL
Serum concentrations of SDM (dog No.4, OS i/m, 72 hours p.i.): 10000 ng/mL
Serum concentrations of SDM (dog No.5, OS i/m, 0 hours p.i.): 0 ng/mL
Serum concentrations of SDM (dog No.5, OS i/m, 1 hours p.i.): 12000 ng/mL
Serum concentrations of SDM (dog No.5, OS i/m, 4 hours p.i.): 43000 ng/mL
Serum concentrations of SDM (dog No.5, OS i/m, 7 hours p.i.): 53000 ng/mL
Serum concentrations of SDM (dog No.5, OS i/m, 24 hours p.i.): 42000 ng/mL
Serum concentrations of SDM (dog No.5, OS i/m, 28 hours p.i.): 41000 ng/mL
Serum concentrations of SDM (dog No.5, OS i/m, 31 hours p.i.): 43000 ng/mL
Serum concentrations of SDM (dog No.5, OS i/m, 48 hours p.i.): 34000 ng/mL
Serum concentrations of SDM (dog No.5, OS i/m, 55 hours p.i.): 25000 ng/mL
Serum concentrations of SDM (dog No.5, OS i/m, 72 hours p.i.): 20000 ng/mL
Serum concentrations of SDM (dog No.6, GF s/c, 0 hours p.i.): 0 ng/mL
Serum concentrations of SDM (dog No.6, GF s/c, 1 hours p.i.): 26000 ng/mL
Serum concentrations of SDM (dog No.6, GF s/c, 4 hours p.i.): 79000 ng/mL
Serum concentrations of SDM (dog No.6, GF s/c, 7 hours p.i.): 94000 ng/mL
Serum concentrations of SDM (dog No.6, GF s/c, 24 hours p.i.): 56000 ng/mL
Serum concentrations of SDM (dog No.6, GF s/c, 28 hours p.i.): 47000 ng/mL
Serum concentrations of SDM (dog No.6, GF s/c, 31 hours p.i.): 45000 ng/mL
Serum concentrations of SDM (dog No.6, GF s/c, 48 hours p.i.): 34000 ng/mL
Serum concentrations of SDM (dog No.6, GF s/c, 55 hours p.i.): 21000 ng/mL
Serum concentrations of SDM (dog No.6, GF s/c, 72 hours p.i.): 10000 ng/mL

— EP0384722A1, “Chemical compositions” (PITMAN-MOORE LIMITED, priority 1989, dated 1990)
